Experimental data as given in patent US7173026B2, “Pyrrolo [2,1-c][1,4]benzodiazepine-anthraquinone conjugates useful as antitumour agents” (Council of Scientific and Industrial Research, priority 2004, dated 2007).

Assays:
Format in all cases: cell-based
Conditions in all cases: 48 hours
[1] = system: HT-29; test: In vitro cytotoxicity against human cancer cell lines (sulforhodamine B), HT-29
Procedure: (§1) In vitro cytotoxicity against human cancer cell lines: The human cancer cell lines procured from National Cancer Institute, Frederick, U.S.A or National Center for Cell Science; Pune, India. were used in present study. Cells were grown in tissue culture flasks in complete growth medium (RPMI-1640 medium with 2 mM glutamine, 100 μg/ml streptomycin, pH 7.4, sterilized by filtration and supplemented with 10% fetal calf serum and 100 units/ml penicillin before use) at 37° C. in an atmosphere of 5% CO2 and 90% relative humidity in a carbon dioxide incubator. The cells at subconfluent stage were harvested from the flask by treatment with trypsin (0.5% in PBS containing 0.02% EDTA) for determination of cytotoxicity. Cells with viability of more than 98% as determined by trypan blue exclusion were used for assay. Cell suspension of the required cell density were prepared in complete growth medium with gentamycin (50 μg/ml) for determination of cytotoxicity.
(§2) Stock solutions of (2×10–2 M of test material were prepared in DMSO (Dimethyl sulphoxide). The stock solutions were serially diluted with complete growth medium containing 50 μg/ml of gentamycin to obtain working test solutions of required concentrations.
(§3) In vitro cytotoxicity against human cancer cell lines was determined (Monks, A , Scudiero, D., Skehan, P., Shoemaker R., Paull, K., Vistica, D., Hose, C., Langley, j., Cronise, P., Vaigro-Wolff, A., Gray-Goodrich, M., Campbell, H., Mayo, J and Boyd m.J. Natl. Cancer Inst., 1991, 83, 757–766) using 96-well tissue culture plates. 100 μl of cell suspension was added to each well of the 96-well tissue culture plate. The cells were incubated for 24 hours. Test materials in complete growth medium (100 μl) were added after 24 hours incubation to the wells containing cell suspension. The plates were further incubated for 48 hours (at 37° C. in an atmosphere of […] 90% relative humidity in a carbon dioxide incubator) after addition of test material and then the cell growth was stopped by gently layering trichloroacetic acid (TCA, 50 μl, 50%) on top of the medium in all the wells. The plates were incubated at 4° C. for one hour to fix the cells attached to the bottom of the wells. The liquid of all the wells was gently pipetted out and discarded. The plates were washed five times with distilled water to remove TCA, growth medium low molecular weight metabolites, serum proteins etc and air-dried. Cell growth was measured by staining with sulforhodamine B dye (Skehan et al., 1990). The adsorbed dye was dissolved in Tris-Buffer (100 m l, 0.01M, pH 10.4) and plates were gently stirred for 5 minutes on a mechanical stirrer. The optical density was recorded on ELISA reader at 540 nm.
(§4) The cell growth was calculated by subtracting mean OD value of respective blank from the mean OD value of experimental set. Percent growth in presence of test material was calculated considering the growth in absence of any test material as 100% and in turn percent growth inhibition in presence of test material will be calculated.

[2] = system: HCT-15; test: In vitro cytotoxicity against human cancer cell lines (sulforhodamine B), HCT-15
Procedure: as §1, §2
as §3, with “The plates were washed five times with distilled water to remove TCA, growth medium low molecular weight metabolites, serum proteins etc and air-dried.” left out, “The adsorbed dye was dissolved in Tris-Buffer (100 m l, 0.01M, pH 10.4) and plates were gently stirred for 5 minutes on a mechanical stirrer.” left out
as §4

[3] = system: A-549; test: In vitro cytotoxicity against human cancer cell lines (sulforhodamine B), A-549
Procedure: as §1, §2, §3, §4

[4] = system: HOP-62; test: In vitro cytotoxicity against human cancer cell lines (sulforhodamine B), HOP-62
Procedure: as §1, §2
as §3, with “The plates were washed five times with distilled water to remove TCA, growth medium low molecular weight metabolites, serum proteins etc and air-dried.” left out, “The adsorbed dye was dissolved in Tris-Buffer (100 m l, 0.01M, pH 10.4) and plates were gently stirred for 5 minutes on a mechanical stirrer.” left out
as §4

[5] = system: SiHa; test: In vitro cytotoxicity against human cancer cell lines (sulforhodamine B), SiHa
Procedure: as §1, §2, §3, §4

[6] = HT-29, concentration 10-4 mol/L
[7] = HT-29, concentration 10-5 mol/L
[8] = HT-29, concentration 10-6 mol/L
[9] = HCT-15, concentration 10-5 mol/L
[10] = HCT-15, concentration 10-6 mol/L
[11] = A-549, concentration 10-4 mol/L
[12] = A-549, concentration 10-5 mol/L
[13] = A-549, concentration 10-6 mol/L
[14] = HOP-62, concentration 10-5 mol/L
[15] = HOP-62, concentration 10-6 mol/L

Compound	percentage growth inhibition [1, 6] [%]	percentage growth inhibition [1, 7] [%]	percentage growth inhibition [1, 8] [%]	percentage growth inhibition [2, 9] [%]	percentage growth inhibition [2, 10] [%]	percentage growth inhibition [3, 11] [%]	percentage growth inhibition [3, 12] [%]	percentage growth inhibition [3, 13] [%]	percentage growth inhibition [4, 14] [%]	percentage growth inhibition [4, 15] [%]	percentage growth inhibition ([5]; concentration 10-4 mol/L) [%]	percentage growth inhibition ([5]; concentration 10-5 mol/L) [%]	percentage growth inhibition ([5]; concentration 10-6 mol/L) [%]
COc1cc2c(cc1OCCCC(=O)Nc1cccc3c1C(=O)c1ccccc1C3=O)N=C[C@@H]1CCCN1C2=O [compound Va, 7-Methoxy-8-[N-(9,10-dihydro-9,10-dioxo-1-anthracenyl)-propane-3-carboxamide]-oxy-(11aS)-1,2,3,11a tetrahydro-5H-pyrrolo[2,1-c][1,4]benzodiazepin-5-one]	93	86	68	66	59	93	27	47	90	74	57	52	41
COc1cc2c(cc1OCCCCC(=O)Nc1cccc3c1C(=O)c1ccccc1C3=O)N=C[C@@H]1CCCN1C2=O [compound Vc, 7-Methoxy-8-[N-(9,10-dihydro-9,10-dioxo-1-anthracenyl)-butane-4-carboxamide]-oxy-(11aS)-1,2,3,11a tetrahydro-5H-pyrrolo [2,1-c][1,4]benzodiazepin-5-one]	93	87	73	82	61	93	10	56	97	73	73	49	40
